Test systems include MALME-3M melanoma; LOX IMVI melanoma; NCI-H522 lung; K-562 leukemia; RPMI-8226 leukemia; HCC-2998 colon; NCI/ADR-RES ovarian; SF-268 CNS; OVCAR-5 ovarian; NCI-H226 lung; KM12 colon; SR leukemia; MDA-MB-435.
Holding throughout (assay): NCI-60 cell line screen, 48 h

SMILES strings stand for the structures. “And” between values parts separate entries of the source, which are not always exact repeats. Equal entries are not always repeated.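 Exposure lasted 48 hours, with cells grown in 96-well plates and compounds tested at five concentrations. GI50 marks 50% less growth. TGI: total growth inhibition.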 Starred links: 1 amine or outer side, 2 acyl side, 3 side chain; linkers in the order of their positions; H or OH if unused. Positions of bridges follow the written chain, without caps; N, C: chain ends. Non-standard residues stand in square brackets, D forms with d. Residues, ends and D or L forms follow the SMILES beside them. Chains are numbered I, II in the order given. Actinocin(9to1) = Cc1c2oc3c(C)ccc(C(=O)[*:1])c3nc-2c(C(=O)[*:2])c(N)c1=O; NMeY = CN[CH](Cc1ccc(O)cc1)C(=O)O; Sar = CNCC(=O)O

Here are results for 10 molecules from PubChem BioAssay (NCI).

With `COC(=O)C1=C(OC(=O)/C(=C/c2ccc(Cl)cc2)c2ccc(Cl)cc2)C(C(=O)OC)[C@@]2(O)[C@@H](C(=O)OC)[C@H](C)C[C@@H]1[C@@H]2C(=O)OC` (stereo partly specified), the TGI was above 100 µM in the test on MALME-3M melanoma; above 100 µM with LOX IMVI melanoma; above 67.3 µM with NCI-H522 lung; above 100 µM in the test on K-562 leukemia; above 100 µM in the test on RPMI-8226 leukemia; above 100 µM in the test on HCC-2998 colon. The TGI with NCI/ADR-RES ovarian, in the test on SF-268 CNS, in the test on OVCAR-5 ovarian, in the test on NCI-H226 lung, with KM12 colon and in the test on SR leukemia was above 100 µM each time. This molecule yielded a TGI in the test on MDA-MB-435 above 100 µM.

Take `CCCC(=O)NC(NC1CCCCC1)(C(=O)OCC)C(F)(F)F` (stereo unspecified): the TGI in the test on MALME-3M melanoma, in the test with LOX IMVI melanoma, with NCI-H522 lung, in the test with K-562 leukemia, in the test on RPMI-8226 leukemia and in the test with HCC-2998 colon was above 100 µM throughout. The TGI in the test with NCI/ADR-RES ovarian, in the test with SF-268 CNS, with OVCAR-5 ovarian, in the test on NCI-H226 lung, in the test on KM12 colon and in the test with SR leukemia was above 100 µM each time. Also, in the test with MDA-MB-435, the TGI was above 100 µM.

Take `COC[C@@H](N=CC(C)(C)C)C(C)C`: the TGI in the test on MALME-3M melanoma, in the test on LOX IMVI melanoma, in the test with NCI-H522 lung, with K-562 leukemia, in the test with RPMI-8226 leukemia and with HCC-2998 colon was above 100 µM in each case. Also, the TGI in the test on NCI/ADR-RES ovarian, in the test with SF-268 CNS, with OVCAR-5 ovarian, in the test on NCI-H226 lung, in the test with KM12 colon and with SR leukemia was above 100 µM in each case. Further, the TGI in the test with MDA-MB-435 was above 100 µM.

On to `BrC1=C(Br)C2(SCCS2)[C@H]2C[C@@H]1c1ccccc12`, for which the TGI in the test with MALME-3M melanoma was above 100 µM; with LOX IMVI melanoma, above 100 µM; in the test on NCI-H522 lung it was above 100 µM; with K-562 leukemia, above 100 µM; in the test on RPMI-8226 leukemia it was above 100 µM; in the test with HCC-2998 colon it was above 89.6 µM. The TGI in the test on NCI/ADR-RES ovarian is above 100 µM; in the test on SF-268 CNS it was above 100 µM; with OVCAR-5 ovarian, above 100 µM; in the test with NCI-H226 lung, above 100 µM; in the test with KM12 colon, above 100 µM; with SR leukemia it was 75 µM. Also, the TGI in the test on MDA-MB-435 was above 100 µM.

In the case of `C/C=C/C(CC(O)(C(F)(F)F)C(F)(F)F)=N/NC(N)=S`, the TGI with MALME-3M melanoma, in the test with LOX IMVI melanoma, in the test with NCI-H522 lung, in the test with K-562 leukemia, in the test on RPMI-8226 leukemia and in the test with HCC-2998 colon was above 10 µM each time. For the same molecule, the TGI with NCI/ADR-RES ovarian, with SF-268 CNS, in the test with OVCAR-5 ovarian, in the test with NCI-H226 lung, with KM12 colon and in the test with SR leukemia was above 10 µM in each case. For the same molecule, the TGI in the test on MDA-MB-435 is above 10 µM.

As to `CC(C)NC(=O)OCc1c(COC(=O)NC(C)C)c(-c2cc[n+](COC(=O)C3CC3)cc2)n2c1CCC2`, the TGI with MALME-3M melanoma, in the test with LOX IMVI melanoma, in the test on NCI-H522 lung, in the test with K-562 leukemia, with RPMI-8226 leukemia and with HCC-2998 colon was above 100 µM throughout. Moreover, the TGI in the test with NCI/ADR-RES ovarian, in the test on SF-268 CNS, in the test with OVCAR-5 ovarian, in the test on NCI-H226 lung, in the test with KM12 colon and in the test with SR leukemia was above 100 µM throughout. The molecule also showed a TGI in the test with MDA-MB-435 above 100 µM.

For `Cc1c2oc3c(C)ccc(C(=O)NC4C(=O)NC(C(C)C)C(=O)N5CCCC5C(=O)N(C)CC(=O)N(C)C(Cc5ccc(O)cc5)C(=O)OC4C)c3nc-2c(C(=O)NC2C(=O)NC(C(C)C)C(=O)N3CCCC3C(=O)N(C)CC(=O)N(C)C(Cc3ccc(O)cc3)C(=O)OC2C)c(N)c1=O` (stereo unspecified) (I: TVP[Sar][NMeY] / II: TVP[Sar][NMeY]; ester I:1-I:C, II:1-II:C; linker I:N-II:N via Actinocin(9to1); configuration not given here), the TGI is 0.273 µM and 0.156 µM in the test with MALME-3M melanoma; above 1 µM with LOX IMVI melanoma; 0.11 µM and 0.031 µM in the test with NCI-H522 lung; above 1 µM in the test on K-562 leukemia; 0.926 µM and > 1 µM in the test on RPMI-8226 leukemia; 0.277 µM and 0.169 µM with HCC-2998 colon. For the same molecule, the TGI with NCI/ADR-RES ovarian was above 1 µM; with SF-268 CNS it was above 1 µM; in the test on OVCAR-5 ovarian, 0.997 µM and > 0.443 µM; with NCI-H226 lung it was above 0.539 µM; in the test on KM12 colon, 0.536 µM and > 1 µM; in the test on SR leukemia, above 0.514 µM. The TGI in the test on MDA-MB-435 was 0.259 µM and 0.147 µM. The GI50 in the test with LOX IMVI melanoma is 0.00436 µM and 0.000966 µM; in the test with K-562 leukemia, 0.00338 µM and 0.000595 µM; in the test on HCC-2998 colon, 0.104 µM and 0.0112 µM; in the test on NCI/ADR-RES ovarian, 0.494 µM; with OVCAR-5 ovarian, 0.199 µM and 0.0508 µM; with MDA-MB-435 it was 0.0459 µM and 0.0099 µM.

As for `COc1cc(Nc2nc3ccccc3nc2C(=O)O)cc(OC)c1OC`, the TGI in the test on MALME-3M melanoma, in the test on LOX IMVI melanoma, in the test on NCI-H522 lung, in the test on K-562 leukemia, with RPMI-8226 leukemia and in the test with HCC-2998 colon was above 100 µM throughout. The TGI with NCI/ADR-RES ovarian, in the test with SF-268 CNS, with OVCAR-5 ovarian, with NCI-H226 lung, with KM12 colon and with SR leukemia was above 100 µM in each case. In the test with MDA-MB-435, this molecule displayed a TGI above 100 µM.

For the molecule `Nc1ccc2c(c1)C(=O)N1CCC[C@H]1C(=O)N2`, the TGI in the test with MALME-3M melanoma, in the test with LOX IMVI melanoma, in the test on NCI-H522 lung, with K-562 leukemia, in the test on RPMI-8226 leukemia and with HCC-2998 colon was above 100 µM each time. Further, the TGI in the test with NCI/ADR-RES ovarian, in the test on SF-268 CNS, in the test on OVCAR-5 ovarian, in the test on NCI-H226 lung, with KM12 colon and with SR leukemia was above 100 µM in each case. In the test with MDA-MB-435, this molecule had a TGI above 100 µM.

As for `Cc1c(C)c2c(c(N)c1C#N)C(=O)N(NC(=O)c1ccccc1)C2=O`, the TGI in the test on MALME-3M melanoma, in the test with LOX IMVI melanoma, in the test on NCI-H522 lung, with K-562 leukemia, in the test on RPMI-8226 leukemia and in the test on HCC-2998 colon was above 100 µM each time. For the same molecule, the TGI in the test on NCI/ADR-RES ovarian, with SF-268 CNS, in the test on OVCAR-5 ovarian, in the test on NCI-H226 lung, in the test on KM12 colon and in the test on SR leukemia was above 100 µM each time. This molecule also came in with a TGI in the test on MDA-MB-435 above 100 µM.
